4 molecules from ChEMBL document CHEMBL6078636, “A Spatiotemporally Controlled and Mitochondria-Targeted Prodrug of Hydrogen Sulfide Enables Mild Mitochondrial Uncoupling for the Prevention of Lipid Deposition” (J Med Chem, 2024) can be followed below.

Activity calls are given as the source filed them. The calls are words filed in the database; no cut-off is given here.

The nature of data set [1]: Prodrug conversion in mouse AML12 cells assessed as H2S metabolite release at 10 uM incubated for 4 hrs followed by UV light-irradiation for 1 min by WSP-5 probe based analysis. The note with it: aml12, 4.017 h, time 241 min. Type of data set: ADME, cell-based.
Data set [2] has as its system AML12. In words: Inhibition of mitochondrial membrane potential in mouse AML12 cells under UV light-irradiation by JC-1 staining based analysis. Type of data set: functional, cell-based.
A short description of data set [3]: Prodrug release in mouse AML12 cells assessed as H2S metabolite release at 10 uM incubated for 4 hrs followed by UV light-irradiation for 1 min by 2-OH-Cou probe based analysis. The note with it: aml12, 4.017 h, time 241 min. Type of data set: ADME, cell-based.
For data set [4], the system named is AML12. Kind of data set: Cytotoxicity against mouse AML12 cells pretreated for 24 hrs followed by UV light-irradiation for 1 min by MTT assay. To be noted: aml12, 24.02 h, time 1441 min. Format: toxicity, cell-based.
The subject of data set [5] is AML12. In words: Induction of mitochondrial ROS via reverse electron transport driven by sulfide quinone oxidoreductase in mouse AML12 cells assessed as decrease in ratio of NAD+/NADH levels under photo-irradiation in presence of rotenone. Type of data set: functional, cell-based.
The subject of data set [6] is AML12. In words: Activation of mitochondrial AMPK in mouse AML12 cells assessed as increase in pMFF level under light irradiation upto 10 uM by Western blot analysis. Format: cell-based. To be noted: filed as activator.
In data set [7] the test system is AML12. In words: Inhibition of mitochondrial membrane potential in mouse AML12 cells under UV light-irradiation measured after 24 hrs by TMRE staining based analysis. Type of data set: functional, cell-based.
Data set [8] is described as follows: Prodrug conversion in mouse AML12 cells assessed as H2S metabolite release at 10 uM incubated for 4 hrs followed by UV light-irradiation for 1 min by […] based analysis. Type of data set: ADME, cell-based. The note with it: aml12, 4 h.
Data set [9] concerns AML12. Kind of data set: Activation of mitochondrial AMPK in mouse AML12 cells assessed as increase in pMFF level under light irradiation at 1 to 10 uM in presence of rotenone by Western blot analysis. Format: cell-based. The note with it: dose 1-10 µM.
In data set [10] the test system is AML12. In words: Activation of mitochondrial AMPK signal pathway in palmitic acid-stimulated mouse AML12 cells assessed as increase in pACC level under light irradiation at 1 to 10 uM by Western blot analysis. Type of data set: cell-based. To be noted: filed as activator, dose 1-10 µM.
Data set [11] in a line: Prodrug release in mouse AML12 cells assessed as H2S metabolite release at 1 to 10 uM incubated for 4 hrs followed by UV light-irradiation for 1 min by 2-OH-Cou probe based analysis. Format: ADME, cell-based. To be noted: aml12, 4.017 h, dose 1-10 µM, time 241 min.
Data set [12] concerns AML12. Kind of data set: Activation of mitochondrial AMPK in mouse AML12 cells harboring SQR knockdown assessed as increase in pMFF level under light irradiation at 1 to 10 uM by Western blot analysis. Type of data set: cell-based. To be noted: dose 1-10 µM.
The nature of data set [13]: Drug uptake in mouse AML12 cells at 10 uM incubated for 4 hrs followed by UV light-irradiation for 1 min by WSP-5 probe based analysis. Type of data set: ADME, cell-based. To be noted: aml12, 4.017 h, time 241 min.
The test system of data set [14] is AML12. In words: Induction of mitochondrial ROS via reverse electron transport driven by sulfide quinone oxidoreductase in mouse AML12 cells under photo-irradiation by MitoSOX staining based analysis. Type of data set: functional, cell-based.
Data set [15] concerns AML12. In words: Induction of mitochondrial uncoupling in oligomycin-treated mouse AML12 cells assessed as increase in OCR level at 10 uM incubated for 4 hrs followed by UV light-irradiation for 1 min under photo-irradiation. To be noted: time 241.0 min. Format: functional, cell-based.
Data set [16] concerns AML12. In words: Inhibition of excessive lipid deposition in mouse AML12 cells assessed as decrease in palmitic acid-induced total triglycerides at 1 to 10 uM by Oil Red O staining based analysis. Type of data set: functional, cell-based. The note with it: dose 1-10 µM.
In data set [17] the test system is AML12. Kind of data set: Activation of mitochondrial AMPK in mouse AML12 cells assessed as increase in pACC level under light irradiation by Western blot analysis. Type of data set: cell-based. The note with it: filed as activator, dose <= 10.0 µM.
Data set [18] concerns AML12. Kind of data set: Induction of mitochondrial ROS in mouse AML12 cells harboring SQR knockdown under photo-irradiation. Type of data set: functional, cell-based.
Data set [19] concerns AML12. In words: Induction of mitochondrial ROS via reverse electron transport driven by sulfide quinone oxidoreductase in mouse AML12 cells assessed as increase in ratio of CoQH2/CoQ levels under photo-irradiation. Format: functional, cell-based.
Data set [20] in a line: Prodrug conversion in mouse AML12 cells assessed as H2S metabolite release at 1 to 10 uM incubated for 4 hrs followed by UV light-irradiation for 1 min by WSP-5 probe based analysis. Format: ADME, cell-based. To be noted: aml12, 4.017 h, dose 1-10 µM, time 241 min.
Data set [21] can be described thus: Prodrug conversion assessed as H2S metabolite release upto 100 uM under photo-irradiation by methylene blue dye based analysis. Type of data set: ADME.
Data set [22] relates to AML12. In words: Inhibition of excessive lipid deposition in mouse AML12 cells assessed as decrease in palmitic acid-induced free fatty acid at 1 to 10 uM by Oil Red O staining based analysis. To be noted: dose 1-10 µM. Type of data set: functional, cell-based.
Data set [23] deals with AML12. Kind of data set: Inhibition of mitochondrial membrane potential in mouse AML12 cells under UV light-irradiation measured for 30 mins by TMRE staining based analysis. Format: functional, cell-based.
Data set [24] relates to AML12. In words: Induction of H2O2 generation in mitochondria of mouse AML12 cells harboring SQR knockdown under photo-irradiation. Type of data set: functional.
The test system of data set [25] is AML12. In words: Inhibition of excessive lipid deposition in mouse AML12 cells assessed as decrease in palmitic acid-induced total cholesterol at 1 to 10 uM by Oil Red O staining based analysis. Type of data set: functional, cell-based. The note with it: dose 1-10 µM.
In data set [26] the test system is AML12. Kind of data set: Induction of mitochondrial uncoupling in oligomycin-treated mouse AML12 cells assessed as decrease in intracellular ATP level incubated for 4 hrs followed by UV light-irradiation for 1 min under photo-irradiation. Format: functional, cell-based. The note with it: dose <= 10.0 µM, time 241.0 min.
Data set [27] deals with AML12. Kind of data set: Induction of mitochondrial ROS via reverse electron transport driven by sulfide quinone oxidoreductase in mouse AML12 cells assessed as decrease in ratio of NAD+/NADH levels under photo-irradiation. Format: functional, cell-based.
Data set [28] concerns AML12. In words: Induction of H2O2 generation in mitochondria of mouse AML12 cells under photo-irradiation. Type of data set: functional.
Data set [29] deals with AML12. Kind of data set: Inhibition of excessive lipid deposition in mouse AML12 cells assessed as decrease in palmitic acid-induced lipid content by Oil Red O staining based analysis. Type of data set: functional, cell-based. To be noted: dose 1-10 µM.
In data set [30] the test system is AML12. Kind of data set: Activation of mitochondrial AMPK signal pathway in palmitic acid-stimulated mouse AML12 cells under light irradiation in presence of AMPK inhibitor by Western blot analysis. Type of data set: cell-based.
In data set [31] the test system is AML12. Kind of data set: Activation of mitochondrial AMPK phosphorylation in mouse AML12 cells under light irradiation by Western blot analysis. Format: cell-based. The note with it: filed as activator, dose <= 10.0 µM.

Regarding `O=C(CCCCCCCCC[P+](c1ccccc1)(c1ccccc1)c1ccccc1)Oc1ccc(-c2cc(=S)ss2)cc1.[Br-]`, the Drug metabolism entry in data set [1] is “metabolite_detected”. In data set [2], the inhibition entry is “inactive”.
With `Cc1cc(C)c(C(C)(C)CC(=O)S)c(OC(=O)OCc2cc3ccc(OCc4ccccc4[N+](=O)[O-])cc3oc2=O)c1`, the inhibition entry in [2] is “inactive”. Further, the Drug metabolism result in [3] was “metabolite_notdetected”. Moreover, the Activity result in data set [4] is “Non-toxic”.
For `Oc1ccc(-c2cc(=S)ss2)cc1`, in data set [2], the inhibition entry was “inactive”.
As for `Cc1cc(C)c(C(C)(C)CC(=O)S)c(OC(=O)OCc2cc3ccc(OCc4cc(OCCCC[P+](c5ccccc5)(c5ccccc5)c5ccccc5)ccc4[N+](=O)[O-])cc3oc2=O)c1`, the result in data set [5], in data set [9], in [12] and in [30] was inactive. The outcome in data set [6], in [14], in data set [15], in data set [18], in [19] and in data set [24] was Active. Also, the outcome in [27] and in [28] was Active. Moreover, the inhibition result in data set [7] and in data set [2] was “inactive” throughout. In addition, the Drug metabolism result in data set [8], in data set [11], in data set [3] and in [20] was “metabolite_detected” throughout. Moreover, the Activity entry was “Active; Exhibited More Potency Than Ap39 And Adt-Oh” in [10]; “Dose-dependent-effect; Exhibited More Potency Than Ap39 And Adt-Oh” in data set [17]; “Active” in data set [21]; “Dose-dependent-effect; Activity Superior To M2, Ap39, Adt-Oh” in data set [26]; “Non-toxic” in data set [4]; “Dose-dependent-effect; Exhibited More Potency Than Ap39 And Adt-Oh” in data set [31]. The molecule also registered a Drug uptake in data set [13] of 100%. For the same molecule, the inhibition result in data set [16], in data set [22], in data set [23] and in data set [25] was “Active” each time. The inhibition entry in data set [29] was “Dose-dependent-effect; Exhibited As More Effective Than Ap39 And Adt-Oh”.
